{"source": "patent US20170258722A1", "about": "“ENCAPSULATING LIPOSOMES” (priority 2012, published 2017)", "description": "Chloroform was removed by flash evaporation and the lipid mixture was dissolved in 1 ml of warm tert-butanol (also referred to as t-butanol). The tert-butanol solution of lipid was then frozen rapidly by immersing the tube in a mixture of isopropanol and dry ice. […] The excess sulfuric acid was then neutralized by adding an appropriate volume of 5 M sodium hydroxide alone or with phosphate buffer. […] After drug loading, the mixture was diluted with 0.9% w/v sodium chloride and sedimented in an ultracentrifuge for 1 hour at 30,000×g. The supernatant was carefully removed and the pellet was re-suspended in a small volume of 0.9% w/v NaCl.\nFirst, DPPC/cholesterol films were lyophilized from t-butanol-treated lipid films. […] Liposomes were sedimented by centrifugation at 30,000 rpm for 0.5 hour to remove any unencapsulated drug.\nTo measure the encapsulated contents of the liposomes, the liposomes were washed in 0.9% NaCl solution and solubilized with 1:3:1 NaCl:methanol:chloroform."}
{"smiles": "CCN(CC)CCCC(C)Nc1ccnc2cc(Cl)ccc12", "note": "(centres unmarked) [chloroquine]", "values": [{"measurement": "Drug Loading (% of Added)", "setting": "Table 2, DPPC:Cholesterol 2:1 liposomes, 0.375M sulfuric acid, phosphate buffered loading", "value": "100 % of Added"}, {"measurement": "loaded using the acid loading methodology", "setting": "sulfuric acid 0.375 M, 6 mg buprenorphine, 33 mg chloroquine added", "value": 100, "unit": "%"}]}
